Laboratory results published in patent US20230081390A1, “INHIBITORS OF RAF KINASES” (Kinnate Biopharma Inc., priority 2019, published 2023).

Each compound was assayed against human RAF1 (Homo sapiens, UniProt P04049) (assay: Protein kinase assay (33P-ATP filter binding), human RAF1, 10-dose IC50). Settings: MEK1 (K97R) substrate 3 micromolar, ATP 10 micromolar, read-out: RAF-1 IC50.
Assay type: biochemical
Outline: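 Human RAF1 phosphorylated human MEK1 (K97R) substrate at 3 µM with 10 µM ATP (³³P), in pH 7.5 HEPES buffer with MgCl2, EGTA, Brij35, BSA, Na3VO4 and DTT. Reactions ran for 2 hr at room temperature with P81 filter capture.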

Sequence of human RAF1 (P04049 whole entry): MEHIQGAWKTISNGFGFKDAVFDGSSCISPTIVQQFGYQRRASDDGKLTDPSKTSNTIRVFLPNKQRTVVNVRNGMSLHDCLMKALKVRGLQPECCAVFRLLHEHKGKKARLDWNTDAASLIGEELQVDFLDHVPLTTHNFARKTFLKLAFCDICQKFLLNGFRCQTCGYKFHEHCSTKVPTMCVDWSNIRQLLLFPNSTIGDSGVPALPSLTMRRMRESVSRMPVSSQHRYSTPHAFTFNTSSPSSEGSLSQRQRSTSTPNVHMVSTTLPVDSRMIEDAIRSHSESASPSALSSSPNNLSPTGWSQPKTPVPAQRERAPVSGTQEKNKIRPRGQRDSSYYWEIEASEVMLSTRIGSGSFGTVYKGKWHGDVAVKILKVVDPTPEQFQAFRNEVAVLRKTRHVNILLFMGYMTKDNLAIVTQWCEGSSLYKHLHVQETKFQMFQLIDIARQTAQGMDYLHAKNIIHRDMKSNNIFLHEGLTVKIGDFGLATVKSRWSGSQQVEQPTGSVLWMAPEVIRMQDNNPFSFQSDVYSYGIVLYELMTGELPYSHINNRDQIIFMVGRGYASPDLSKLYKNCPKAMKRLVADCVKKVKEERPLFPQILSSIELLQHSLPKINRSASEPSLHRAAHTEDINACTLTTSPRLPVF

| Compound | IC50 |
| --- | --- |
| Cc1cc(F)c(NC(=O)N2C[C@@H](N)C[C@@H](C(F)(F)F)C2)cc1-c1cc(OCCO)nc(N2CCOCC2)c1 [Example 40, (3S,5R)-3-amino-N-[2-fluoro-5-[2-(2-hydroxyethoxy)-6-(morpholin-4-yl)pyridin-4-yl]-4-methylphenyl]-5-(trifluoromethyl)piperidine-1-carboxamide] | < 10 nM |
| Cc1cc(F)c(NC(=O)N2CCC3(COC3)C2)cc1-c1cc(OCCO)nc(N2CCOCC2)c1 [Example 41, N-[2-fluoro-5-[2-(2-hydroxyethoxy)-6-(morpholin-4-yl)pyridin-4-yl]-4-methylphenyl]-2-oxa-6-azaspiro[3.4]octane-6-carboxamide] | 10 to 100 nM |
| COC1(C(F)(F)F)CCCN(C(=O)Nc2cc(-c3cc(OCCO)nc(N4CCOCC4)c3)c(C)cc2F)C1 (stereo not shown) [Example 42, N-[2-fluoro-5-[2-(2-hydroxyethoxy)-6-(morpholin-4-yl)pyridin-4-yl]-4-methylphenyl]-3-methoxy-3-(trifluoromethyl)piperidine-1-carboxamide] | < 10 nM |
| Cc1cc(F)c(NC(=O)NC2CC2C(F)(F)F)cc1-c1cc(OCCO)nc(N2CCOCC2)c1 (stereo not shown) [Example 43, 1-[2-fluoro-5-[2-(2-hydroxyethoxy)-6-(morpholin-4-yl)pyridin-4-yl]-4-methylphenyl]-3-[2-(trifluoromethyl)cyclopropyl]urea] | < 10 nM |
| Cc1cc(F)c(NC(=O)N2C[C@@H](O)C[C@@H](C(F)(F)F)C2)cc1-c1cc(OCCO)nc(N2CCOCC2)c1 [Example 44, (3S,5R)-N-[2-fluoro-5-[2-(2-hydroxyethoxy)-6-(morpholin-4-yl)pyridin-4-yl]-4-methylphenyl]-3-hydroxy-5-(trifluoromethyl) piperidine-1-carboxamide] | < 10 nM |
| Cc1cc(F)c(NC(=O)N2CCC(CF)(C(F)(F)F)C2)cc1-c1cc(OCCO)nc(N2CCOCC2)c1 (stereo not shown) [Example 45, N-[2-fluoro-5-[2-(2-hydroxyethoxy)-6-(morpholin-4-yl)pyridin-4-yl]-4-methylphenyl]-3-(fluoromethyl)-3-(trifluoromethyl)pyrrolidine-1-carboxamide] | < 10 nM |
| Cc1cc(F)c(NC(=O)N2CCCCC(F)(F)C2)cc1-c1cc(OCCO)nc(N2CCOCC2)c1 [Example 46, 3,3-difluoro-N-[2-fluoro-5-[2-(2-hydroxyethoxy)-6-(morpholin-4-yl)pyridin-4-yl]-4-methylphenyl]azepane-1-carboxamide] | 10 to 100 nM |
| Cc1cc(F)c(NC(=O)NCC2(C(F)(F)F)CCC2)cc1-c1cc(OCCO)nc(N2CCOCC2)c1 [Example 49, 1-[2-fluoro-5-[2-(2-hydroxyethoxy)-6-(morpholin-4-yl)pyridin-4-yl]-4-methylphenyl]-3-[[1-(trifluoromethyl)cyclobutyl]methyl]urea] | < 10 nM |
| Cc1cc(F)c(NC(=O)N2CCCC(N)(C(F)(F)F)C2)cc1-c1cc(OCCO)nc(N2CCOCC2)c1 (stereo not shown) [Example 54, 3-amino-N-[2-fluoro-5-[2-(2-hydroxyethoxy)-6-(morpholin-4-yl)pyridin-4-yl]-4-methylphenyl]-3-(trifluoromethyl)piperiidne-1-carboxamide] | < 10 nM |
| Cc1cc(F)c(NC(=O)N2C[C@H](N)C[C@H](C(F)(F)F)C2)cc1-c1cc(OCCO)nc(N2CCOCC2)c1 [Example 55, (3R,5S)-3-amino-N-[2-fluoro-5-[2-(2-hydroxyethoxy)-6-(morpholin-4-yl)pyridin-4-yl]-4-methylphenyl]-5-(trifluoromethyl)piperidine-1-carboxamide] | < 10 nM |
| Cc1cc(F)c(NC(=O)NC(C)CC(F)(F)F)cc1-c1cc(OCCO)nc(N2CCOCC2)c1 (stereo not shown) [Example 57, 1-[2-fluoro-5-[2-(2-hydroxyethoxy)-6-(morpholin-4-yl)pyridin-4-yl]-4-methylphenyl]-3-(4,4,4-trifluorobutan-2-yl)urea] | < 10 nM |
| Cc1cc(F)c(NC(=O)N2CC=C(C(F)(F)F)C2)cc1-c1cc(OCCO)nc(N2CCOCC2)c1 [Example 72, N-[2-fluoro-5-[2-(2-hydroxyethoxy)-6-(morpholin-4-yl)pyriidn-4-yl]-4-methylphenyl]-3-(trifluoromethyl)-2,5-dihydropyrrole-1-carboxamide] | < 10 nM |
| Cc1cc(F)c(NC(=O)N2CCC3(CCCC3)C2)cc1-c1cc(OCCO)nc(N2CCOCC2)c1 [Example 73, N-(2-fluoro-5-(2-(2-hydroxyethoxy)-6-morpholinopyridin-4-yl)-4-methylphenyl)-2-azaspiro[4.4]nonane-2-carboxamide] | < 10 nM |
| Cc1cc(F)c(NC(=O)N2CCC(C(O)C(F)(F)F)C2)cc1-c1cc(OCCO)nc(N2CCOCC2)c1 (stereo not shown) [Example 76, N-[2-fluoro-5-[2-(2-hydroxyethoxy)-6-(morpholin-4-yl)pyridin-4-yl]-4-methylphenyl]-3-(2,2,2-trifluoro-1-hydroxyethyl)pyrrolidine-1-carboxamide] | < 10 nM |
| Cc1cc(F)c(NC(=O)N2CC=C(C(F)(F)C(F)(F)F)C2)cc1-c1cc(OCCO)nc(N2CCOCC2)c1 [Example 79, N-[2-fluoro-5-[2-(2-hydroxyethoxy)-6-(morpholin-4-yl)pyridin-4-yl]-4-methylphenyl]-3-(1,1,2,2,2-pentafluoroethyl)-2,5-dihydropyrrole-1-carboxamide] | < 10 nM |
| Cc1cc(F)c(NC(=O)N2CCO[C@@H](C(F)(F)F)C2)cc1-c1cnc(OC2CCOCC2)c(N2CCOCC2)c1 [Example 87, (2R)-N-[2-fluoro-4-methyl-5-[5-(morpholin-4-yl)-6-(oxan-4-yloxy)pyridin-3-yl]phenyl]-2-(trifluoromethyl)morpholine-4-carboxamide] | < 10 nM |
| Cc1cc(F)c(NC(=O)N2CC/C(=C/C(F)(F)F)C2)cc1-c1cc(OCCO)nc(N2CCOCC2)c1 [Example 92, (Z)-N-(2-fluoro-5-(2-(2-hydroxyethoxy)-6-morpholinopyridin-4-yl)-4-methylphenyl)-3-(2,2,2-trifluoroethylidene)pyrrolidine-1-carboxamide] | < 10 nM |
| Cc1cc(F)c(NC(=O)N2CC/C(=C\C(F)(F)F)C2)cc1-c1cc(OCCO)nc(N2CCOCC2)c1 [Example 93, (E)-N-(2-fluoro-5-(2-(2-hydroxyethoxy)-6-morpholinopyridin-4-yl)-4-methylphenyl)-3-(2,2,2-trifluoroethylidene)pyrrolidine-1-carboxamide] | < 10 nM |
| C/C(=C1\CCN(C(=O)Nc2cc(-c3cc(OCCO)nc(N4CCOCC4)c3)c(C)cc2F)C1)C(F)(F)F [Example 94, (3Z)-N-[2-fluoro-5-[2-(2-hydroxyethoxy)-6-(morpholin-4-yl)pyridin-4-yl]-4-methylphenyl]-3-(1,1,1-trifluoropropan-2-ylidene)pyrrolidine-1-carboxamide] | < 10 nM |
| C/C(=C1/CCN(C(=O)Nc2cc(-c3cc(OCCO)nc(N4CCOCC4)c3)c(C)cc2F)C1)C(F)(F)F [Example 95, (3E)-N-[2-fluoro-5-[2-(2-hydroxyethoxy)-6-(morpholin-4-yl)pyridin-4-yl]-4-methylphenyl]-3-(1,1,1-trifluoropropan-2-ylidene)pyrrolidine-1-carboxamide] | < 10 nM |
| Cc1cc(F)c(NC(=O)N2CC=C(CC(F)(F)F)C2)cc1-c1cc(OCCO)nc(N2CCOCC2)c1 [Example 96, N-[2-fluoro-5-[2-(2-hydroxyethoxy)-6-(morpholin-4-yl)pyridin-4-yl]-4-methylphenyl]-3-(2,2,2-trifluoroethyl)-2,5-dihydropyrrole-1-carboxamide] | < 10 nM |
| C/C(C#N)=C1/CCN(C(=O)Nc2cc(-c3cc(OCCO)nc(N4CCOCC4)c3)c(C)cc2F)C1 [Example 98, (3E)-3-(1-cyanoethylidene)-N-[2-fluoro-5-[2-(2-hydroxyethoxy)-6-(morpholin-4-yl)pyridin-4-yl]-4-methylphenyl]pyrrolidine-1-carboxamide] | < 10 nM |
| Cc1cc(F)c(NC(=O)N2CCC(C(C)(C)C#N)C2)cc1-c1cc(OCCO)nc(N2CCOCC2)c1 (stereo not shown) [Example 99, 3-(1-cyano-1-methylethyl)-N-[2-fluoro-5-[2-(2-hydroxyethoxy)-6-(morpholin-4-yl)pyridin-4-yl]-4-methylphenyl]pyrrolidine-1-carboxamide] | < 10 nM |
| Cc1cc(F)c(NC(=O)N2CCC(F)(F)C(C(F)(F)F)C2)cc1-c1cc(OCCO)nc(N2CCOCC2)c1 (stereo not shown) [Example 104, 4,4-difluoro-N-[2-fluoro-5-[2-(2-hydroxyethoxy)-6-(morpholin-4-yl)pyridin-4-yl]-4-methylphenyl]-3-(trifluoromethyl)piperidine-1-carboxamide] | < 10 nM |
| Cc1cc(F)c(NC(=O)N2CC3(C(F)(F)F)CC2CO3)cc1-c1cc(OCCO)nc(N2CCOCC2)c1 (stereo not shown) [Example 107, N-[2-fluoro-5-[2-(2-hydroxyethoxy)-6-(morpholin-4-yl)pyridin-4-yl]-4-methylphenyl]-1-(trifluoromethyl)-2-oxa-5-azabicyclo[2.2.1]heptane-5-carboxamide] | < 10 nM |
| Cc1ccc(NC(=O)N2CCC(C3CC3(F)F)C2)cc1-c1cc(OCCO)nc(N2CCOCC2)c1 (stereo not shown) [Example 114, 3-(2,2-difluorocyclopropyl)-N-[3-[2-(2-hydroxyethoxy)-6-(morpholin-4-yl)pyridin-4-yl]-4-methylphenyl]pyrrolidine-1-carboxamide] | < 10 nM |
| Cc1ccc(NC(=O)N2CCC(CC(F)(F)F)C2)cc1-c1cnc(OC2CCOCC2)c(N2CCOCC2)c1 (stereo not shown) [Example 123, N-[4-methyl-3-[5-(morpholin-4-yl)-6-(oxan-4-yloxy)pyridin-3-yl]phenyl]-3-(2,2,2-trifluoroethyl)pyrrolidine-1-carboxamide] | < 10 nM |
| Cc1ccc(NC(=O)Nc2cnn(C(F)(F)F)c2)cc1-c1cc(OCCO)nc(N2CCOCC2)c1 [Example 125, 1-[3-[2-(2-hydroxyethoxy)-6-(morpholin-4-yl)pyridin-4-yl]-4-methylphenyl]-3-[1-(trifluoromethyl)pyrazol-4-yl]urea] | < 10 nM |
